Biological target: T1, BK channels (Oryctolagus cuniculus, UniProt Q9BG98)
T1 construct: wherein the native BK channels were more sensitive to Ca^2+; from tissue
Assay: Single channel recordings, inside-out patch clamp, voltage ramps, isolated smooth muscle cells of the rabbit bladder
Assay type: cell-based
Conditions: for ΔV1/2 (mV) in 100 nm Ca^2+: 10 μM compound, inside-out patch; for effect on BK channel activity, in words (SAR discussion based on V1/2 data): inside out patches on rabbit smooth muscle cells
Description: All experiments were approved by the Dundalk Institute of Technology Animal Care and Use Committee. […] The urinary bladder and most proximal 1.5 cm of the urethra was removed and placed in Krebs solution. Strips of bladder tissue, 0.5 cm in width were dissected, cut into 1 mm^3 pieces and stored in Ca^2+-free Hanks' solution for 30 min prior to cell dispersal. Tissue pieces were incubated in dispersal medium containing (per 5 ml) of Ca^2+-free Hanks' solution: 15 mg collagenase (Sigma type 1A), 1 mg protease (Sigma type XXIV), 10 mg bovine serum albumin (Sigma) and 10 mg trypsin inhibitor (Sigma) for 10-15 min at 37° C. Tissue was then transferred to Ca^2+-free Hanks' solution and stirred for a further 10-15 min to release single smooth muscle cells. These were plated in Petri dishes containing 100 μM Ca^2+ Hanks' solution and stored at 4° C. for use within 8 h. During experiments, the dish containing the cells was continuously perfused with Hanks' solution at 36±1° C. Additionally the cell under study was continuously superfused by means of a custom built close delivery system with a pipette of tip diameter 200 μm placed approximately 300 μm from the cell. The high K^+ solution in the close delivery system could be switched to a drug-containing solution with a dead space time of less than 5 s.
For whole cell recordings pipettes were pulled from borosilicate glass capillary tubing (1.5 mm outer diameter, 1.17 mm inner diameter; Clark Medical Instruments) to a tip of diameter approximately 1-1.5 μm and resistance of 2-4 Mohms. For single channel recordings, pipettes were pulled from borosilicate glass capillary tubing (1.5 mm outer diameter, 0.8 mm inner diameter; Clark Medical Instruments) and fire polished before use. Voltage clamp commands were delivered via an Axopatch 1D or Axon 200B patch clamp amplifiers (Axon Instruments) and membrane currents were recorded by a 12 bit AD/DA converter (Axodata 1200 or Labmaster, Scientific Solutions) interfaced to an Intel computer running pCLAMP software.
All values in (mM): KCl, 140. Glucose, 10, EGTA 1 and HEPES, 10. For free Ca^2+ greater than 300 nM: All values in (mM): KCl, 140. Glucose, 10, H-EDTA 1 and HEPES, 10. The same solution composition is used in the bath as in the patch pipette for these experiments except that the pipette solution contained 100 nM Ca^2+.
In single channel experiments voltage commands were applied using pClamp ramped potentials. This allowed more efficient measurement of slope conductance and channel activation than conventional step depolarisations. Activation curves were calculated by averaging current responses to 15 potential ramps and dividing each data point of the averaged current by the single channel amplitude at that holding potential, after leakage current correction. […] This analysis provides a continuous recording of the number of open channels multiplied by the open probability (NPo) over the entire voltage range. To obtain values for the steepness of the voltage-dependent activation and half-maximal activation voltage, activation curves were fitted with Boltzman functions of the form: NPo=n/{1+exp[−K(V−V1/2)]} where N is the number of channels in the patch, n is the maximal NPo level, K^−1 is the steepness of the voltage-dependent activation (change in potential necessary to cause an e-fold increase in activation) and V1/2 is the voltage at which there is half-maximal activation. Again, all of the experiments were carried out at 36±1° C.
The patches were held at a potential of −100 mV and voltage ramps were then applied from −100 mV up to +100 mV over 2 s.
Patches were held at −100 mV and ramped through to +100 mV and each sweep was repeated 15 times. The same protocol was repeated after the patch was incubated in 1 μM Ca^2+.

T1 sequence (Q9BG98 whole entry): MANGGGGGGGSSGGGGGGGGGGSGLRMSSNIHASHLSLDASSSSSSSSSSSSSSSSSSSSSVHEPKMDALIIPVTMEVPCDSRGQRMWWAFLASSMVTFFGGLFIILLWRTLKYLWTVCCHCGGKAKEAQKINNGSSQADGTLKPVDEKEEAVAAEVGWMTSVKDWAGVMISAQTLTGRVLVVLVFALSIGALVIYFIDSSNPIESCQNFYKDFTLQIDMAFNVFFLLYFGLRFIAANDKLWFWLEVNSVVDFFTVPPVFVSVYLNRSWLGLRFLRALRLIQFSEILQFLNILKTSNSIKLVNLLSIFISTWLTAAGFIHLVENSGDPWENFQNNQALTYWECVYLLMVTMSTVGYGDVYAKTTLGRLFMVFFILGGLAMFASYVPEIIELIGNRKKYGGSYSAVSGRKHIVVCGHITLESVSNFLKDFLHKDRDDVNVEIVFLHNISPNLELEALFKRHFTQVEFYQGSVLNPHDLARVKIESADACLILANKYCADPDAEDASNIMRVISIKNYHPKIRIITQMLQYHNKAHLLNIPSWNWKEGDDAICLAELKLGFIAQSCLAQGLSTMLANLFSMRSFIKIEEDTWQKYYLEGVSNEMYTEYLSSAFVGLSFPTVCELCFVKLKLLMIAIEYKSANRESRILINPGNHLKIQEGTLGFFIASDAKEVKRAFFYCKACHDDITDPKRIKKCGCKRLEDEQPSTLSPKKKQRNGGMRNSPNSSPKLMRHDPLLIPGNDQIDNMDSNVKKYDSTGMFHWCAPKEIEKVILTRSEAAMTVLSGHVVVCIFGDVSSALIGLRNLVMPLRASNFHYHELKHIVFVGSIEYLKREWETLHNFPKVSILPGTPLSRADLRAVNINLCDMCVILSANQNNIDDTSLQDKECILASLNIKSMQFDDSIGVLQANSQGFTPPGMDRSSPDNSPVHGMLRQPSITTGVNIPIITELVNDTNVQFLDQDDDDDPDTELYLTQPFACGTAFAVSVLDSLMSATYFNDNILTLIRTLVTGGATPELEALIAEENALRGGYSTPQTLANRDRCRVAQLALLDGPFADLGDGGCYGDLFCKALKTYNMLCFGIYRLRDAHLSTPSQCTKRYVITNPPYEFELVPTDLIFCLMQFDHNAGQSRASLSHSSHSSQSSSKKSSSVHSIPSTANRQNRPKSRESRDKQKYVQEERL

SMILES	ΔV1/2 (mV) in 100 nm Ca^2+ (Table 1, V1/2 control vs drug)	effect on BK channel activity, in words (SAR discussion based on V1/2 data)	further results
Nc1c(S(=O)(=O)[O-])cc(NC2CCCCC2)c2c1C(=O)c1ccccc1C2=O.[Na+] [Acid Blue 62, sodium 1-amino-4-(cyclohexylamino)-9,10-dioxo-9,10-dihydroanthracene-2-sulfonate]	−54.37 mV		
Nc1c(S(=O)(=O)O)cc(Br)c2c1C(=O)c1ccccc1C2=O [Bromaminic acid, reference compound]		inhibitory effect	
C=C(C)[C@H]1O[C@H]2CC[C@@]3(C)[C@@](O)(CC[C@H]4[C@@H]5OC(C)(C)[C@H]6C[C@@H]7C(=C)Cc8c(Cl)cc9[nH]c(c5c9c8[C@@]76O)[C@@]43C)[C@@]23O[C@H]3[C@H]1O [Penitrem A, reference compound]			effect on single channel openings (100 nM, 1 μM Ca2+, voltage ramp): abolished the single channel openings
Nc1c(S(=O)(=O)[O-])cc(NC2CCCC2)c2c1C(=O)c1ccccc1C2=O.[Na+] [SR-5-8, sodium 1-amino-4-(cyclopentylamino)-9,10-dioxo-9,10-dihydroanthracene-2-sulfonate]	−24.24 mV		
COc1ccccc1Nc1cc(S(=O)(=O)[O-])c(N)c2c1C(=O)c1ccccc1C2=O.[Na+] [SR-5-12, sodium 1-amino-4-(2-methoxyphenylamino)-9,10-dioxo-9,10-dihydroanthracene-2-sulfonate]	−54.1 mV		
Nc1c(S(=O)(=O)[O-])cc(Nc2cc(F)cc(F)c2)c2c1C(=O)c1ccccc1C2=O.[Na+] [SR-5-14, sodium 1-amino-4-(3,5-difluorophenylamino)-9,10-dioxo-9,10-dihydroanthracene-2-sulfonate]	−24.2 mV		
Nc1c(S(=O)(=O)[O-])cc(Nc2cccc(F)c2)c2c1C(=O)c1ccccc1C2=O.[Na+] [SR-5-15, sodium 1-amino-4-(3-fluorophenylamino)-9,10-dioxo-9,10-dihydroanthracene-2-sulfonate]	−28.4 mV		
Nc1c(S(=O)(=O)[O-])cc(Nc2cccc(S(=O)(=O)O)c2)c2c1C(=O)c1ccccc1C2=O.[Na+] [SR-5-18, sodium 1-amino-9,10-dioxo-4-(3-sulfophenylamino)-9,10-dihydroanthracene-2-sulfonate]	−23.2 mV	decreases the activity dramatically	
Cc1cccc(Nc2cc(S(=O)(=O)[O-])c(N)c3c2C(=O)c2ccccc2C3=O)c1.[Na+] [SR-5-26, sodium 4-(m-toluidino)-1-amino-9,10-dioxo-9,10-dihydroanthracene-2-sulfonate]	−53.5 mV		
Nc1c(S(=O)(=O)[O-])cc(Nc2ccc(F)c(C(F)(F)F)c2)c2c1C(=O)c1ccccc1C2=O.[Na+] [SR-5-28, sodium 1-amino-4-(4-fluoro-3-(trifluoromethyl)phenylamino)-9,10-dioxo-9,10-dihydroanthracene-2-sulfonate]	−83.2 mV		
CCc1cccc(Nc2cc(S(=O)(=O)[O-])c(N)c3c2C(=O)c2ccccc2C3=O)c1.[Na+] [SR-5-31, sodium 1-amino-4-(3-ethylphenylamino)-9,10-dioxo-9,10-dihydroanthracene-2-sulfonate]	−87.1 mV		
Nc1c(S(=O)(=O)[O-])cc(NC2CCCCCC2)c2c1C(=O)c1ccccc1C2=O.[Na+] [SR-5-32, sodium 1-amino-4-(cycloheptylamino)-9,10-dioxo-9,10-dihydroanthracene-2-sulfonate]	−61.1 mV		
Nc1c(S(=O)(=O)[O-])cc(Nc2cccc(OC(F)(F)F)c2)c2c1C(=O)c1ccccc1C2=O.[Na+] [SR-5-34, sodium 1-amino-9,10-dioxo-4-(3-(trifluoromethoxy)phenylamino)-9,10-dihydroanthracene-2-sulfonate]	−84.0 mV		
Nc1c(S(=O)(=O)[O-])cc(Nc2ccc(Cc3ccccc3)cc2)c2c1C(=O)c1ccccc1C2=O.[Na+] [SR-5-37, sodium 1-amino-4-(4-benzylphenylamino)-9,10-dioxo-9,10-dihydroanthracene-2-sulfonate]	−77.8 mV	BK channel openers	
Nc1c(S(=O)(=O)[O-])cc(Nc2ccc(Cl)c(C(F)(F)F)c2)c2c1C(=O)c1ccccc1C2=O.[Na+] [SR-5-40, sodium 1-amino-4-(4-chloro-3-(trifluoromethyl)phenylamino)-9,10-dioxo-9,10-dihydroanthracene-2-sulfonate]	−97.8 mV		
Cc1ccc(Nc2cc(S(=O)(=O)[O-])c(N)c3c2C(=O)c2ccccc2C3=O)cc1C(F)(F)F.[Na+] [SR-5-44, sodium 1-amino-4-(4-methyl-3-(trifluoromethyl)phenylamino)-9,10-dioxo-9,10-dihydroanthracene-2-sulfonate]	−145.4 mV		
Nc1c(S(=O)(=O)[O-])cc(Nc2cccc(O)c2)c2c1C(=O)c1ccccc1C2=O.[Na+] [SR-5-53, sodium 1-amino-4-((3-hydroxyphenyl)amino)-9,10-dioxo-9,10-dihydroanthracene-2-sulfonate]			ΔV1/2 (mV) in 100 nm Ca^2+ (Table 2): −44.1 mV
CC(C)c1cccc(Nc2cc(S(=O)(=O)[O-])c(N)c3c2C(=O)c2ccccc2C3=O)c1.[Na+] [SR-5-63, sodium 1-amino-4-((3-isopropylphenyl)amino)-9,10-dioxo-9,10-dihydroanthracene-2-sulfonate]		BK channel agonists	ΔV1/2 (mV) in 100 nm Ca^2+ (Table 2): −113.1 mV
Nc1c(S(=O)(=O)[O-])cc(Nc2ccc3c(c2)CCC3)c2c1C(=O)c1ccccc1C2=O.[Na+] [SR-5-64, sodium 1-amino-4-((2,3-dihydro-1H-inden-5-yl)amino)-9,10-dioxo-9,10-dihydroanthracene-2-sulfonate]			ΔV1/2 (mV) in 100 nm Ca^2+ (Table 2): −87.6 mV
Nc1c(S(=O)(=O)[O-])cc(Nc2cccc3c2CCCC3)c2c1C(=O)c1ccccc1C2=O.[Na+] [SR-5-65, sodium 1-amino-9,10-dioxo-4-((5,6,7,8-tetrahydronaphthalen-1-yl)amino)-9,10-dihydroanthracene-2-sulfonate]		potent BK channel activator	ΔV1/2 (mV) in 100 nm Ca^2+ (Table 2): −116.2 mV
Nc1c(S(=O)(=O)[O-])cc(Nc2cccc3ccccc23)c2c1C(=O)c1ccccc1C2=O.[Na+] [SR-5-66]		potency was dropped substantially	ΔV1/2 (mV) in 100 nm Ca^2+ (Table 2): −53.4 mV
Nc1c(S(=O)(=O)[O-])cc(Nc2cccc(Cc3ccccc3)c2)c2c1C(=O)c1ccccc1C2=O.[Na+] [SR-5-68, sodium 1-amino-4-((3-benzylphenyl)amino)-9,10-dioxo-9,10-dihydroanthracene-2-sulfonate]		BK channel agonists	ΔV1/2 (mV) in 100 nm Ca^2+ (Table 2): −120.0 mV
